Experiments:
[1] = biological target: T1, Glutathione S-transferase omega-1 (Homo sapiens, UniProt P78417); test: Inhibition of human GSTO1-1 by MMA (V) reductase assay
T1 sequence (P78417 whole entry): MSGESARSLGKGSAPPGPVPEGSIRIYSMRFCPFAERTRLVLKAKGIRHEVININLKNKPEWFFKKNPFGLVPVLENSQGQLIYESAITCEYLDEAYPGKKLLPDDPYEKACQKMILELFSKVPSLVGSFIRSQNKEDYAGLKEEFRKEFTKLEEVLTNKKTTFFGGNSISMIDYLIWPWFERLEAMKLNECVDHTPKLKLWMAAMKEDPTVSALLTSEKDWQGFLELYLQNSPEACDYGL

[2] = biological target: T1, Glutathione S-transferase omega-1; test: Inhibition of GSTO1-1 (unknown origin) by enzymatic assay
[3] = biological target: Glutathione S-transferase omega-1 (Homo sapiens) (UniProt P78417); test: Inhibition of human GSTO1-1 expressed in HEK293 cells by CDNB-GSH conjugation assay
[4] = biological target: Glutathione S-transferase P (Homo sapiens, UniProt P09211); test: Inhibition of human GSTP1-1
[5] = biological target: T1, Glutathione S-transferase omega-1; test: Inhibition of GSTO1-1 (unknown origin) pre-incubated for 1 hr before GSH addition by CDNB-GSH conjugation assay
[6] = biological target: T1, Glutathione S-transferase omega-1; test: Inhibition of GSTO1-1 (unknown origin) by 4-NPG substrate based assay

Glutathione S-transferase P, sequence (P09211 whole entry): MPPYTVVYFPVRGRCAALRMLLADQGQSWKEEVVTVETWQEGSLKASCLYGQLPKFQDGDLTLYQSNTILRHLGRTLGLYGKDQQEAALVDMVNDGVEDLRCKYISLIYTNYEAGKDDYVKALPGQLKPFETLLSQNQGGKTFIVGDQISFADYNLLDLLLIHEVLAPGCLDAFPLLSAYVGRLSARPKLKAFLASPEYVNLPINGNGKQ

With `C[C@H](CCC(=O)O)[C@H]1CC[C@H]2[C@@H]3CC[C@@H]4C[C@H](O)CC[C@]4(C)[C@H]3C[C@H](O)[C@]12C` the IC50 [1] was 1020 µM.

Compound `CCN(CC)C(=O)SSC(=O)N(CC)CC` has an IC50 [2] of less than 400 nM.

`CC(=O)Oc1ccc2c(c1)Oc1cc(OC(C)=O)ccc1C21OC(=O)c2cc(CCl)ccc21` showed an IC50 [3] of 51.2 nM.

`Cc1c(C)c2c(c(C)c1OC(=O)CCC(=O)O)CC[C@@](C)(CCC[C@H](C)CCC[C@H](C)CCCC(C)C)O2` [(+)-ALPHA-TOCOPHERYL SUCCINATE] was tested, and the IC50 [1] was 4 µM.

`Cc1c(C)c2c(c(C)c1O)CC[C@@](C)(CCC[C@H](C)CCC[C@H](C)CCCC(C)C)O2` [ALPHA-TOCOPHEROL] was tested, and the IC50 [4] was 500 nM.

With `CC(C)C[C@H](NC(=O)[C@H](CCc1ccccc1)NC(=O)CN1CCOCC1)C(=O)N[C@@H](Cc1ccccc1)C(=O)N[C@@H](CC(C)C)C(=O)[C@@]1(C)CO1` [CARFILZOMIB] the IC50 [5] was 150 nM.

Compound `CC(C)c1cc2c(c(O)c1O)[C@@]1(C(=O)O)CCCC(C)(C)[C@@H]1CC2` [CARNOSIC ACID] has an IC50 [6] of 62 µM.

Compound `O=[N+]([O-])c1ccc(Cl)c([N+](=O)[O-])c1` [DINITROCHLOROBENZENE] has an IC50 [1] of 900 µM.

`C=C(CC)C(=O)c1ccc(OCC(=O)O)c(Cl)c1Cl` [ETHACRYNIC ACID] showed an IC50 [1] of 25 µM.

In the case of `O=C1C=CC(O)(c2cc(=O)c3c(O)cc(O)cc3o2)C=C1` [PROTOAPIGENONE], the IC50 [6] is reported as 1.6 µM.

From ChEMBL document CHEMBL4196096, “Reviewing Hit Discovery Literature for Difficult Targets: Glutathione Transferase Omega-1 as an Example” (J Med Chem, 2018)
